Key:
[1] = system: pBR322 DNA; experiment: Top1-mediated unwinding assay; assay type: biochemical; settings: supercoiled or relaxed pBR322 DNA, excess Top1, 19a up to 9 μM
Experimental: The binding of classical DNA intercalators between the base pair of circular DNA produce Top1-mediated unwinding effect, thereby antagonizing Top1-mediated DNA relaxation. […]. […] […]. The reaction mixture (20 μL) contained supercoiled or relaxed pBR322 DNA (0.5 μg), tested compounds and excess Top1 (10 units) in relaxing buffer (10 mM Tris, pH 7.5, 0.1 mM EDTA, 5 mM MgCl2, 50 mM KCl, 1 mM DTT, 15 μg/mL acetylated BSA). The DNA was incubated with the tested compounds at room temperature for 10 min prior to the addition of Top1. After being incubated for 30 min at 37° C., the reaction was terminated by the addition of […] loading buffer. The results were analyzed using 1% agarose gel in TAE buffer at 5 V/cm. The gel was stained with gel red and visualized with a UV transilluminator.

[2] = system: HCT116 xenograft; experiment: In vivo antitumor activity, HCT116 xenograft; settings: HCT116 xenograft
[3] = system: HCT116 cells; experiment: Flow cytometry apoptosis assay; assay type: cell-based, human; settings: HCT116, 24 h, 0.5, 1 and 2 μM
Experimental: To evaluate the induction of apoptosis by 50, flow cytometry assays were performed in HCT116 cells.
The stained cells were analyzed by using flow cytometry (BD, FACSCalibur, USA) within I h. The experiments were repeated three times independently.

[4] = Pharmacokinetic study in rat; settings: SD rats, i.g. 5 mg/kg
Experimental: The SD rats were divided into two groups (n=3) and treated by intravenous injection (i.v.) at 1 mg/kg dose and intragastrical administration (i.g.) at 5 mg/kg dose, respectively.
A pharmacokinetic (PK) study in vivo of 50 was performed in Sprague-Dawley (SD) rats. The SD rats were randomly divided into two groups […] and treated by intravenous injection (iv) at 1 mg/kg dose or an intragastrical administration (ig) at 5 mg/kg dose, respectively. Plasma samples were collected postdosing and the concentration of 50 was measured.
Plasma samples (100 μL) were obtained after centrifugation for 10 min at 3000 rpm and stored at −20° C. until used for analysis. The plasma was detected through LC-MS-MS.

[5] = system: γH2AX foci in HCT116 cells; experiment: γH2AX detection by immunofluorescence; assay type: cell-based, human; settings: HCT116, 1 μM, 3 h
Experimental: To evaluate the DNA damaging effect of 50 in cancer cells, γH2AX foci were assessed by immunofluorescence microscopy in human […] HCT116 cells. After incubation with the compounds for 3 h, the HCT116 cells were stained with γH2AX antibodies.
HCT116 cells (2×10^4 cells/mL) were grown in culture medium and treated with compounds for 3 h at 37° C. […] Cells were permeabilized with 0.5% Triton X-100 in PBS at 0° C. for 30 min. Dish was blocked with 5% goat serum/PBS at 37° C. for 3 h. […] The dishes were again washed six times with blocking buffer. Digital images were recorded using an LSM710 microscope (Zeiss, Germany) and analyzed with ZEN software.

[6] = system: Huh7; experiment: MTT cytotoxicity assay, Huh7; assay type: cell-based, human; settings: 72 h, Table 1b
Experimental: (§1) Cytotoxicity Assays. […] The cells were incubated with the tested compounds for 72 hours in a five-dose assay ranging from 0.01 to 100 μM concentration. After drug treatments, MTT solution was added to test the percentage growth of tumor cells.
(§2) For the drug treatment experiments, the cancer cells were treated with the compounds (predissolved in DMSO) at a five-dose assay ranging from 0.01 to 100 μM concentration. […] After 4 h incubation, the formazan crystal formed in the well was dissolved with […] of DMSO for optical density reading at 570 nm. The GI50 value was calculated by nonlinear regression analysis (GraphPad Prism).

[7] = target: T1, Top1 (Homo sapiens, UniProt P11387); experiment: Top1-mediated DNA cleavage assay; assay type: biochemical; settings: semi-quantitative score relative to CPT (1) at 1 μM; tested at 0.1-100 μM
T1 sequence (P11387 1-765): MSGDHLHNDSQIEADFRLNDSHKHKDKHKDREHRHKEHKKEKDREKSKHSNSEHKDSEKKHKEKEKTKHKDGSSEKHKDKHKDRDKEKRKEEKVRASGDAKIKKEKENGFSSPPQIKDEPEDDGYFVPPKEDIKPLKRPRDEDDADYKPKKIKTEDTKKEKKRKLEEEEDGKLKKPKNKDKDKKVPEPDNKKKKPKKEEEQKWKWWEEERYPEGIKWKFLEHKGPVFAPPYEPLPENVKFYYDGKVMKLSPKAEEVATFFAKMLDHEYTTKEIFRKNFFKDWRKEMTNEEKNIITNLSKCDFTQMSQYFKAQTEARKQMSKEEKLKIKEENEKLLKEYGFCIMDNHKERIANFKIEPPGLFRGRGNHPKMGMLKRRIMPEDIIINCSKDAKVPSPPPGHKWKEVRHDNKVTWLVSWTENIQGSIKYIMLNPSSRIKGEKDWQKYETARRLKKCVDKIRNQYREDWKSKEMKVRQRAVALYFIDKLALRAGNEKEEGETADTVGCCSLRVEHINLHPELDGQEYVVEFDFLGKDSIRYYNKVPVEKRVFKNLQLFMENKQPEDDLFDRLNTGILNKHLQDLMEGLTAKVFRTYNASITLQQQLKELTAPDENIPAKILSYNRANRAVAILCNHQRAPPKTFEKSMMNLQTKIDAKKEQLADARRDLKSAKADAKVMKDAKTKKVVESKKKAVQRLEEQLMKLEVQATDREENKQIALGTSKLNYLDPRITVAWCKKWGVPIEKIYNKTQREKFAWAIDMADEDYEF

[8] = system: A549; experiment: MTT cytotoxicity assay, A549; assay type: cell-based, human; settings: 72 h, Table 1b, read-out: GI50 (μM) A549
Experimental: as §1
(§3) The compounds were incubated with the cells for 72 hours in a five-dose assay ranging from 0.01 to 100 μM concentration. At the end of the incubation, the MTT solution was added to test the percentage growth of tumor cells.
as §2

[9] = system: DU145; experiment: MTT cytotoxicity assay, DU145; assay type: cell-based, human; settings: 72 h, Table 1b, read-out: GI50 (μM) DU145
Experimental: as §1, §3, §2

[10] = system: HCT116; experiment: MTT cytotoxicity assay, HCT116; assay type: cell-based, human; settings: 72 h, Table 1b, read-out: GI50 (μM) HCT116
Experimental: as §1, §3, §2

[11] = system: F10T dsDNA; experiment: FRET melting assay; assay type: binding; settings: compounds at 2 μM
Experimental: It was reported that nitidine can intercalate into double-stranded DNA (dsDNA) and inhibit Top1. […] The DNA intercalator 49 was used as positive control.
FRET melting assay was carried out on a real-time PCR apparatus as the following methods. […] In the experiment, the annealed oligonucleotide (final concentration of 0.4 μM) were incubated with the tested compounds (2 μM) in a total reaction volume of Tris-HCl buffer (10 mM, pH 7.4) containing 60 mM KCl at 37° C. for 0.5 h. Fluorescence melting curves were determined with a Roche LightCycler 2 real-time PCR machine with excitation at 470 nm and detection at 530 nm.

[12] = system: CCRF-CEM; experiment: MTT cytotoxicity assay, CCRF-CEM; assay type: cell-based, human; settings: 72 h, Table 1b
Experimental: as §1, §2

[13] = target: T2, Tdp1 (Homo sapiens, UniProt Q9NUW8); experiment: Tdp1 inhibition fluorescence assay; assay type: biochemical; settings: compounds at 100 μM
Experimental: Tdp Inhibition. […] The compounds were tested at 100 μM concentration. […] Fluorescence assay. […] Tdp1 solution (20 μL/well, 0.02 μL purified Tdp1 (100 nM) in 10 mM Tris-HCl, pH 7.5, 50 mM KCL, I mM EDTA, 1 mM DTT) was dispensed into wells of a white 384-well plate (NEST). The tested compound solution in DMSO (5 μL) was pinned into assay plates and incubated at room temperature for 30 min. […] Tdp percentage inhibition of the tested compounds was calculated by comparing the rate of increase in fluorescence throughout time for the compound-treated wells to that of DMSO control wells.

[14] = target: T2, Tdp1; settings: reported in the background; cited from earlier work

T2 sequence (Q9NUW8 whole entry): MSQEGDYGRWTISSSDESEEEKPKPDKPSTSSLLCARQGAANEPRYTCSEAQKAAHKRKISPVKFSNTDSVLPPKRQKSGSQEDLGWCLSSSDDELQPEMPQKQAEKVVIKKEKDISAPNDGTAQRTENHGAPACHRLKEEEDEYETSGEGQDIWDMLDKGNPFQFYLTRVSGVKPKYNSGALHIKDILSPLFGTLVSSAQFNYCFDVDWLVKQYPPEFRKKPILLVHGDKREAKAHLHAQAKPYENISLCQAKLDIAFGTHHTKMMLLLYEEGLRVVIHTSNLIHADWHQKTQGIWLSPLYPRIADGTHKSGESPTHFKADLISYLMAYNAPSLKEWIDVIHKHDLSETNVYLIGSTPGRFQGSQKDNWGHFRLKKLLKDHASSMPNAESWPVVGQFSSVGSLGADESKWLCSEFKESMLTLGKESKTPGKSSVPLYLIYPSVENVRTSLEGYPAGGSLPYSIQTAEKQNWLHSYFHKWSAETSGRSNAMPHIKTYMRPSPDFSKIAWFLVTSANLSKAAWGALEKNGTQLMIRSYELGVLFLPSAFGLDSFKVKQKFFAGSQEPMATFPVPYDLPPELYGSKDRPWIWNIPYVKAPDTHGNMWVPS

For `COc1cc2c(=O)n(CCN(C)C)c3c4cc5c(cc4ccc3c2cc1OC)OCO5` [Compound 19a, 12-(2-(Dimethylamino)ethyl)-2,3-dimethoxy-[1,3]dioxolo[4′,5′:4,5]benzo[1,2-c]phenanthridin-13(12H)-one], which Top1-mediated unwinding effect [1] is on record?
The Top1-mediated unwinding effect was “no Top1-mediated unwinding effect”.

And the body weight ([2]; 5 mg/kg i.p. daily)?
The body weight was “no obvious body loss”.

And the body weight ([2]; 10 mg/kg i.p. daily)?
Its body weight is “Body weight loss was found”.

And the tumor volume ([2]; i.p. once every day)?
The tumor volume was “significantly reduced tumor volume in a dose-dependent manner”.

And the induction of apoptosis [3]?
Its induction of apoptosis is “significantly induce HCT116 cells apoptosis in a dose-dependent manner”.

And the “Tmax” value [4]?
Its value is 1.17 ± 0.76 h.

And the γH2AX foci [5]?
Its γH2AX foci is “γH2AX foci were induced”.

For `COc1cc2c(cc1OC)-c1ccc3cc4c(cc3c1N(CCN(C)C)C2)OCO4` [Compound 26a, 2-(2,3-Dimethoxy-[1,3]dioxolo[4′,5′:4,5]benzo[1,2-c]phenanthridin-12(131)-yl)-N,N-dimethylethan-1-amine], which GI50 [6] is on record?
Its GI50 is 7.78 ± 2.91 µM.

And the TOP1 inhibition [7]?
The TOP1 inhibition was “+ (+, between 20% and 50% activity)”.

What about the GI50 [8] of the same molecule?
The GI50 was 6.68 ± 1.93 µM.

And the GI50 [9]?
The GI50 was 1.93 ± 0.41 µM.

What about the GI50 [10] of the same molecule?
The GI50 was 7.36 ± 3.55 µM.

And the “ΔTm (°C.) F10T” value [11]?
The value was 1.0 °C.

And the GI50 [12]?
Its GI50 is 0.95 ± 0.14 µM.

And the “GI50 (μM) CCRF-CEM” value [12]?
The value was “submicromolar concentration”.

And the TDP1 inhibition [13]?
The TDP1 inhibition was 0%.

Which Tdp1 inhibition [14] does the source give for `[Na+].[Na+].[Na+].[O]=[V]([O-])([O-])[O-]` [sodium orthovanadate] here?
Its Tdp1 inhibition is “inhibition only at millimolar concentration”.
